These results are taken from US20100160386A1, “4-PHENOXY-NICOTINE ACID DERIVATIVES AND USE THEREOF AS PPAR-MODULATORS” (BAYER SCHERING PHARMA AKTIENGESELLSCHAFT, priority 2006, published 2010).

pEC50: −log10 of the molar value.

For the assay, the target named is T1, human PPARα-receptor (Homo sapiens, UniProt Q07869).
T1 construct: expressed in transfected cells
T1 sequence (Q07869 167-468): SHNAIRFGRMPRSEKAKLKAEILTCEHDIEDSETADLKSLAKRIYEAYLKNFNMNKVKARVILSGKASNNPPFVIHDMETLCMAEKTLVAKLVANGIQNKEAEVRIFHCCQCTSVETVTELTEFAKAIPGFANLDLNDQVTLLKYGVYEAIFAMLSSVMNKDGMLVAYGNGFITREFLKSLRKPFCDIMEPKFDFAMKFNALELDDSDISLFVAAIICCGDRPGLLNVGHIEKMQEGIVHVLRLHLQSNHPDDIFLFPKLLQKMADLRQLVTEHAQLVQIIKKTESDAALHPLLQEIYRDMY
Put plainly: Cellular transactivation assay (GAL4-PPARα chimera, luciferase reporter in CHO cells). In kind it is cell-based. The note with it: CHO cells stably expressing GAL4-PPARα chimera and luciferase reporter; stimulation time 6 h. The text has this:
A cellular assay is used to identify activators of the peroxisome proliferator-activated receptor alpha (PPAR-alpha).
Since mammalian cells contain different endogenous nuclear receptors which can complicate unambiguous interpretation of the results, an established chimera system is used, in which the ligand binding domain of the human PPARα-receptor is fused to the DNA binding domain of the yeast transcription factors GAL4. The GAL4-PPARα chimera thus formed is co-transfected and expressed stably in CHO cells with a reporter construct.
The GAL4-PPARα expression construct contains the ligand binding domain of PPARα (amino acids 167-468), which is PCR-amplified and cloned into the vector pcDNA3.1. This vector already contains the GAL4 DNA binding domain (amino acids 1-147) of the vector pFC2-dbd (Stratagene). The reporter construct, which contains five copies of the GAL4 binding site upstream of a thymidine kinase promoter, leads to the expression of firefly luciferase (Photinus pyralis) after activation and binding of GAL4-PPARα.
The day before the test, CHO (Chinese hamster ovary) cells which stably express the above-described GAL4-PPARα chimera and luciferase reporter gene construct are plated out in 96-hole microtiter plates with 1×10^3 cells in medium (Optimem, GIBCO), 2% activated carbon-purified fetal calf serum (Hyclone), 1.35 mM sodium pyruvate (GIBCO), 0.2% sodium bicarbonate (GIBCO), and kept in a cell incubator (air humidity 96%, 5% v/v CO2, 37° C.). On the day of the test, the substances to be tested are taken up in abovementioned medium, but without addition of calf serum, and added to the cells. After a stimulation time of 6 h, the luciferase activity is measured with the aid of a video camera. The relative light units measured give a sigmoid stimulation curve as a function of the substance concentration. The EC50 values are calculated with the aid of the computer program GraphPad PRISM (Version 3.02).
A general note: A reporter such as luciferase makes a cellular process visible.
Broadly, the pEC50 is the negative decadic logarithm of the EC50, by convention in mol/L. Higher therefore signals a small EC50. `COc1ccc(Oc2cc(-c3ccc(C)c(F)c3)ncc2C(=O)O)c(Cl)c1` [Example 9, 4-(2-Chloro-4-methoxyphenoxy)-6-(3-fluoro-4-methylphenyl)nicotinic acid]: the pEC50 was 6.63.

Regarding `COc1ccc(Cl)c(Oc2cc(-c3cc(F)cc(F)c3)ncc2C(=O)O)c1` [Example 7, 4-(2-Chloro-5-methoxyphenoxy)-6-(3,5-difluorophenyl)nicotinic acid], the pEC50 is 6.70.

`Cc1ccc(-c2cc(Oc3ccccc3Cl)c(C(=O)O)cn2)cc1F` [Example 1, 4-(2-Chlorophenoxy)-6-(3-fluoro-4-methylphenyl)nicotinic acid] showed a pEC50 of 7.23.
